Data published in patent US7138361B2, “Herbicidal heterocycles” (E. I. du Pont de Nemours and Company, priority 2000, dated 2006).

Legend:
Test in all cases: Test C preemergence
Format in all cases: in vivo
Nightshade [1] = details: visual evaluation after 12 to 14 days
[2] = test system: Surinam grass (Brachiaria decumbens); details: for Plant response rating, Surinam grass: scale 0 to 100, 0 no effect, 100 complete control; for Plant response rating (0 to 100), Surinam grass: visual evaluation after 12 to 14 days
From the text: (§1) Seeds of plant species selected from bermudagrass (Cynodon dactylon), Surinam grass (Brachiaria decumbens), cocklebur (Xanthium strumarium), corn (Zea mays), crabgrass (Digitaria sanguinalis), woolly cupgrass (Eriochloa villosa), giant foxtail (Setaria faberii), goosegrass (Eleusine indica), johnsongrass (Sorghum halepense), kochia (Kochia scoparia), lambsquarters (Chenopodium album), morningglory (Ipomoea hederacea), yellow nutsedge (Cyperus esculentus), pigweed (Amaranthus retroflexus), common ragweed (Ambrosia elatior), soybean (Glycine max) and velvetleaf (Abutilon theophrasti) were planted and treated preemergence with test chemicals formulated in a non-phytotoxic solvent mixture which included a surfactant.
(§2) At the same time, plants selected from these crop and weed species and also winter barley (Hordeum vulgare), blackgrass (Alopecurus myosuroides), canary grass (Phalaris minor), chickweed (Stellaria media), downy brome (Bromus tectorum), green foxtail (Setaria viridis), Italian ryegrass (Lolium multiflorum), wheat (Triticum aestivum), wild oat (Avena fatua) and windgrass (Apera spica-venti) were treated with postemergence applications of some of the test chemicals formulated in the same manner. Plants ranged in height from 2 to 18 cm (1- to 4-leaf stage) for postemergence treatments. Plant species in the flooded paddy test consisted of rice (Oryza saliva), smallflower flatsedge (Cyperus difformis), duck salad (Heteranthera limosa) and barnyardgrass (Echinochloa crus-galli) grown to the 2-leaf stage for testing. Treated plants and controls were maintained in a greenhouse for 12 to 14 days, after which time all species were compared to controls and visually evaluated. Plant response ratings, summarized in Table C, are based on a scale of 0 to 100 where 0 is no effect and 100 is complete control. A dash (-) response means no test result.

soybean (Glycine max) = details: preemergence; for Plant response rating (0 to 100), Soybean: visual evaluation after 12 to 14 days
From the text: as §1, §2

[3] = test system: goosegrass (Eleusine indica); details: for Plant response rating, Goosegrass: scale 0 to 100, 0 no effect, 100 complete control; for Plant response rating (0 to 100), Goosegrass: visual evaluation after 12 to 14 days
From the text: as §1, §2

[4] = test system: pigweed (Amaranthus retroflexus); details: preemergence; for Plant response rating (0 to 100), Pigweed: visual evaluation after 12 to 14 days
From the text: as §1, §2

[5] = test system: giant foxtail (Setaria faberii); details: for Plant response rating, Foxtail, Giant: scale 0 to 100, 0 no effect, 100 complete control
From the text: as §1, §2

[6] = test system: yellow nutsedge (Cyperus esculentus); details: for Plant response rating, Nutsedge: scale 0 to 100, 0 no effect, 100 complete control; for Plant response rating (0 to 100), Nutsedge: visual evaluation after 12 to 14 days
From the text: as §1, §2

[7] = test system: johnsongrass (Sorghum halepense); details: for Plant response rating, Johnsongrass: scale 0 to 100, 0 no effect, 100 complete control; for Plant response rating (0 to 100), Johnsongrass: visual evaluation after 12 to 14 days
From the text: as §1, §2

[8] = test system: crabgrass (Digitaria sanguinalis); details: for Plant response rating, Crabgrass: scale 0 to 100, 0 no effect, 100 complete control; for Plant response rating (0 to 100), Crabgrass: visual evaluation after 12 to 14 days
From the text: as §1, §2

[9] = test system: velvetleaf (Abutilon theophrasti); details: preemergence; for Plant response rating (0 to 100), Velvetleaf: visual evaluation after 12 to 14 days
From the text: as §1, §2

Nightshade [10] = details: scale 0 to 100, 0 no effect, 100 complete control
From the text: as §1, §2

corn (Zea mays) = details: for Plant response rating, Corn: scale 0 to 100, 0 no effect, 100 complete control; for Plant response rating (0 to 100), Corn: visual evaluation after 12 to 14 days
From the text: as §1, §2

[11] = test system: cocklebur (Xanthium strumarium); details: for Plant response rating, Cocklebur: scale 0 to 100, 0 no effect, 100 complete control; for Plant response rating (0 to 100), Cocklebur: visual evaluation after 12 to 14 days
From the text: as §1, §2

kochia (Kochia scoparia) = details: for Plant response rating, Kochia: scale 0 to 100, 0 no effect, 100 complete control; for Plant response rating (0 to 100), Kochia: visual evaluation after 12 to 14 days
From the text: as §1, §2

[12] = test system: common ragweed (Ambrosia elatior); details: preemergence; for Plant response rating (0 to 100), Ragweed, Common: visual evaluation after 12 to 14 days
From the text: as §1, §2

[13] = test system: woolly cupgrass (Eriochloa villosa); details: for Plant response rating, Cupgrass, Woolly: scale 0 to 100, 0 no effect, 100 complete control; for Plant response rating (0 to 100), Cupgrass, Woolly: visual evaluation after 12 to 14 days
From the text: as §1, §2

[14] = test system: morningglory (Ipomoea hederacea); details: for Plant response rating, Morningglory: scale 0 to 100, 0 no effect, 100 complete control; for Plant response rating (0 to 100), Morningglory: visual evaluation after 12 to 14 days
From the text: as §1, §2

[15] = test system: bermudagrass (Cynodon dactylon); details: for Plant response rating, Bermudagrass: scale 0 to 100, 0 no effect, 100 complete control; for Plant response rating (0 to 100 where 0 is no effect and 100 is complete control), Bermudagrass: visual evaluation after 12 to 14 days
From the text: as §1, §2

[16] = Rate 125 g/ha, scale 0 to 100, 0 no effect, 100 complete control

CC1(c2ccn(C3OCN(c4cccc(C(F)(F)F)c4)C3=O)n2)CC1 (stereo not drawn) [Compound 62]
Plant response rating (0 to 100), Nightshade (Nightshade [1]; Rate 250 g/ha): 0
Plant response rating (0 to 100), Nightshade (Nightshade [1]; Rate 500 g/ha): 0
Plant response rating, Surinam grass ([2]; Rate 62 g/ha): 0
Plant response rating (0 to 100), Surinam grass ([2]; preemergence, Rate 250 g/ha): 60
Plant response rating (0 to 100), Surinam grass ([2]; preemergence, Rate 500 g/ha): 80
Plant response rating, Surinam grass ([2]; preemergence, Rate 125 g/ha): 30
Plant response rating (0 to 100), Soybean (soybean (Glycine max); Rate 250 g/ha): 0
Plant response rating (0 to 100), Soybean (soybean (Glycine max); Rate 500 g/ha): 0
Plant response rating, Soybean (soybean (Glycine max); [16]): 0
Plant response rating, Goosegrass ([3]; Rate 62 g/ha): 80
Plant response rating (0 to 100), Goosegrass ([3]; preemergence, Rate 250 g/ha): 100
Plant response rating (0 to 100), Goosegrass ([3]; preemergence, Rate 500 g/ha): 100
Plant response rating, Goosegrass ([3]; preemergence, Rate 125 g/ha): 90
Plant response rating (0 to 100), Pigweed ([4]; Rate 250 g/ha): 0
Plant response rating (0 to 100), Pigweed ([4]; Rate 500 g/ha): 100
Plant response rating, Pigweed [4, 16]: 0
Plant response rating, Foxtail, Giant ([5]; Rate 62 g/ha): 0
Plant response rating (0 to 100), Foxtail, Giant ([5]; preemergence, Rate 500 g/ha, visual evaluation after 12 to 14 days): 100
Plant response rating, Foxtail, Giant ([5]; preemergence, Rate 125 g/ha): 0
Plant response rating, Nutsedge ([6]; Rate 62 g/ha): 0
Plant response rating (0 to 100), Nutsedge ([6]; preemergence, Rate 250 g/ha): 20
Plant response rating (0 to 100), Nutsedge ([6]; preemergence, Rate 500 g/ha): 70
Plant response rating, Nutsedge ([6]; preemergence, Rate 125 g/ha): 0
Plant response rating, Johnsongrass ([7]; Rate 62 g/ha): 20
Plant response rating (0 to 100), Johnsongrass ([7]; preemergence, Rate 250 g/ha): 60
Plant response rating (0 to 100), Johnsongrass ([7]; preemergence, Rate 500 g/ha): 100
Plant response rating, Johnsongrass ([7]; preemergence, Rate 125 g/ha): 40
Plant response rating, Crabgrass ([8]; Rate 62 g/ha): 0
Plant response rating (0 to 100), Crabgrass ([8]; preemergence, Rate 250 g/ha): 100
Plant response rating (0 to 100), Crabgrass ([8]; preemergence, Rate 500 g/ha): 100
Plant response rating, Crabgrass ([8]; preemergence, Rate 125 g/ha): 90
Plant response rating (0 to 100), Velvetleaf ([9]; Rate 250 g/ha): 0
Plant response rating (0 to 100), Velvetleaf ([9]; Rate 500 g/ha): 20
Plant response rating, Velvetleaf [9, 16]: 0
Plant response rating, Nightshade (Nightshade [10]; Rate 62 g/ha): 0
Plant response rating, Nightshade (Nightshade [10]; Rate 125 g/ha): 0
Plant response rating, Corn (corn (Zea mays); Rate 62 g/ha): 0
Plant response rating (0 to 100), Corn (corn (Zea mays); preemergence, Rate 250 g/ha): 0
Plant response rating (0 to 100), Corn (corn (Zea mays); preemergence, Rate 500 g/ha): 20
Plant response rating, Corn (corn (Zea mays); preemergence, Rate 125 g/ha): 0
Plant response rating, Cocklebur ([11]; Rate 62 g/ha): 0
Plant response rating (0 to 100), Cocklebur ([11]; preemergence, Rate 250 g/ha): 0
Plant response rating (0 to 100), Cocklebur ([11]; preemergence, Rate 500 g/ha): 0
Plant response rating, Cocklebur ([11]; preemergence, Rate 125 g/ha): 0
Plant response rating, Kochia (kochia (Kochia scoparia); Rate 62 g/ha): 0
Plant response rating (0 to 100), Kochia (kochia (Kochia scoparia); preemergence, Rate 250 g/ha): 90
Plant response rating (0 to 100), Kochia (kochia (Kochia scoparia); preemergence, Rate 500 g/ha): 90
Plant response rating, Kochia (kochia (Kochia scoparia); preemergence, Rate 125 g/ha): 60
Plant response rating (0 to 100), Ragweed, Common ([12]; Rate 250 g/ha): 0
Plant response rating (0 to 100), Ragweed, Common ([12]; Rate 500 g/ha): 0
Plant response rating, Ragweed, Common [12, 16]: 0
Plant response rating, Cupgrass, Woolly ([13]; Rate 62 g/ha): 30
Plant response rating (0 to 100), Cupgrass, Woolly ([13]; preemergence, Rate 250 g/ha): 90
Plant response rating (0 to 100), Cupgrass, Woolly ([13]; preemergence, Rate 500 g/ha): 90
Plant response rating, Cupgrass, Woolly ([13]; preemergence, Rate 125 g/ha): 50
Plant response rating, Morningglory ([14]; Rate 62 g/ha): 0
Plant response rating (0 to 100), Morningglory ([14]; preemergence, Rate 250 g/ha): 0
Plant response rating (0 to 100), Morningglory ([14]; preemergence, Rate 500 g/ha): 0
Plant response rating, Morningglory ([14]; preemergence, Rate 125 g/ha): 0
Plant response rating, Bermudagrass ([15]; Rate 62 g/ha): 40
Plant response rating (0 to 100 where 0 is no effect and 100 is complete control), Bermudagrass ([15]; preemergence, Rate 250 g/ha): 100
Plant response rating (0 to 100 where 0 is no effect and 100 is complete control), Bermudagrass ([15]; preemergence, Rate 500 g/ha): 100
Plant response rating, Bermudagrass ([15]; preemergence, Rate 125 g/ha): 70
